Earlier results in patent US20050042280A1, “Aqueous based pharmaceutical formulations of water-soluble prodrugs of propofol” (priority 2001, published 2005).

Details: anesthetic induction doses, Bryson et al., Drugs 50 (1995) at 520

CC(C)c1cccc(C(C)C)c1O [propofol, 2,6-diisopropylphenol]
patients with respiratory consequences, including a reduction in tidal volume and apnea: up to 83%
